Assay results: patent publication US6737383B1, “Herbicidal oxadiazolidines” (priority 1999, dated 2004)

Tests used:
[1] = system: pigweed; test: Test B pre/postemergence pigweed; type: in vivo, Amaranthus retroflexus
Outline: (§1)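 Herbicidal effect was estimated by eye on a ten-point control scale after plants spent twelve to sixteen days in a greenhouse following soil or foliar treatment. Foliar sprays targeted plants at one to four leaves; all doses were formulated in a non-phytotoxic solvent with surfactant.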

[2] = system: smallflower flatsedge; test: Test B flood test smallflower flatsedge; type: in vivo, Cyperus difformis
Outline: (§2)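 Read-out is a visual response score from 0 (no effect) to 10 (complete control), assigned by comparison with untreated controls. Treatment was applied at the 2-leaf stage, and plants stayed in the greenhouse for twelve to sixteen days before scoring.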

[3] = system: bamyardgrass; test: Test B flood test barnyardgrass; type: in vivo, Echinochloa crus-galli
Outline: as §2

[4] = system: sugar beet; test: Test B pre/postemergence sugar beet; type: in vivo, Beta vulgaris
Outline: as §1

[5] = system: surinam grass; test: Test B pre/postemergence surinam grass; type: in vivo, Brachiaria decumbens
Outline: as §1

[6] = system: soybean; test: Test B pre/postemergence soybean; type: in vivo, Glycine max
Outline: as §1

[7] = system: rape; test: Test B pre/postemergence rape; type: in vivo, Brassica napus
Outline: as §1

[8] = system: corn; test: Test B pre/postemergence corn; type: in vivo, Zea mays
Outline: as §1

[9] = system: morningglory; test: Test B pre/postemergence morningglory; type: in vivo, Ipomoea hederacea
Outline: as §1

[10] = system: rice; test: Test B flood test rice; type: in vivo, Oryza sativa
Outline: as §2

[11] = system: bedstraw; test: Test B pre/postemergence bedstraw; type: in vivo, Galium aparine; conditions: Postemergence
Outline: as §1

[12] = system: cocklebur; test: Test B pre/postemergence cocklebur; type: in vivo, Xanthium strumarium
Outline: as §1

[13] = system: blackgrass; test: Test B pre/postemergence blackgrass; type: in vivo, Alopecurus myosuroides
Outline: as §1

[14] = system: velvetleaf; test: Test B pre/postemergence velvetleaf; type: in vivo, Abutilon theophrasti
Outline: as §1

[15] = system: wild oat; test: Test B pre/postemergence wild oat; type: in vivo, Avena fatua
Outline: as §1

[16] = system: purple nutsedge; test: Test B pre/postemergence purple nutsedge; type: in vivo, Cyperus rotundus
Outline: as §1

[17] = Postemergence, Rate 62 g/ha, scale 0 to 10, 0 is no effect, 10 is complete control
[18] = Postemergence, Rate 125 g/ha, scale of 0 to 10 where 0 is no effect and 10 is complete control
[19] = Postemergence, Rate 250 g/ha, scale of 0 to 10, 0 is no effect, 10 is complete control
[20] = Preemergence, Rate 62 g/ha, scale 0 to 10 (0 no effect, 10 complete control)
[21] = Preemergence, Rate 125 g/ha, scale of 0 to 10 where 0 is no effect and 10 is complete control
[22] = Preemergence, Rate 250 g/ha, scale 0 to 10 (0 no effect, 10 complete control)
[23] = Preemergence, Rate 500 g/ha, scale of 0 to 10 where 0 is no effect and 10 is complete control
[24] = Rate 62 g/ha, flood test species, Pre-emergence, visual evaluation after twelve to sixteen days
[25] = Rate 125 g/ha, under heading Pre-emergence, flood test species, visual evaluation after twelve to sixteen days
[26] = Rate 250 g/ha, Pre-emergence (flood test species), scale 0 to 10, 0 is no effect, 10 is complete control
[27] = Rate 500 g/ha, Pre-emergence section of Table B, 0 to 10 scale (0 no effect, 10 complete control)
[28] = Postemergence, Rate 500 g/ha, scale of 0 to 10 where 0 is no effect and 10 is complete control

CCOC(Cn1c(=O)on(C(=O)N(c2ccccc2)C(C)C)c1=O)OCC [Compound 632]
Plant response rating, Redroot pigweed [1, 17]: 0 | Plant response rating, Redroot pigweed [1, 18]: 0 | Redroot pigweed plant response rating [1, 19]: 0 | Redroot pigweed plant response rating [1, 20]: 0 | Redroot pigweed plant response rating [1, 21]: 0 | Plant response rating, Redroot pigweed [1, 22]: 6 | Plant response rating, Redroot pigweed [1, 23]: 10 | Plant response rating, S. Flatsedge (0 to 10 scale, 0 is no effect, 10 is complete control) [2, 24]: 0 | S. Flatsedge plant response rating (0 to 10 scale, 0 is no effect, 10 is complete control) [2, 25]: 0 | S. Flatsedge plant response rating [2, 26]: 0 | S. Flatsedge plant response rating [2, 27]: 0 | Plant response rating, Barnyardgrass (0 to 10 scale, 0 is no effect, 10 is complete control) [3, 24]: 0 | Barnyardgrass plant response rating (0 to 10 scale, 0 is no effect, 10 is complete control) [3, 25]: 0 | Barnyardgrass plant response rating [3, 26]: 0 | Barnyardgrass plant response rating [3, 27]: 0 | Plant response rating, Sugarbeets [4, 17]: 0 | Plant response rating, Sugarbeets [4, 18]: 0 | Sugarbeets plant response rating [4, 19]: 0 | Sugarbeets plant response rating [4, 20]: 0 | Sugarbeets plant response rating [4, 21]: 0 | Plant response rating, Sugarbeets [4, 22]: 0 | Plant response rating, Sugarbeets [4, 23]: 0 | Plant response rating, B. signalgrass [5, 17]: 0 | Plant response rating, B. signalgrass [5, 18]: 0 | B. signalgrass plant response rating [5, 19]: 2 | Plant response rating, B. signalgrass [5, 28]: 6 | B. signalgrass plant response rating [5, 20]: 0 | B. signalgrass plant response rating [5, 21]: 3 | Plant response rating, B. signalgrass [5, 22]: 6 | Plant response rating, B. signalgrass [5, 23]: 10 | Plant response rating, Soybean [6, 17]: 1 | Plant response rating, Soybean [6, 18]: 2 | Soybean plant response rating [6, 19]: 4 | Soybean plant response rating [6, 20]: 0 | Soybean plant response rating [6, 21]: 0 | Plant response rating, Soybean [6, 22]: 0 | Plant response rating, Soybean [6, 23]: 0 | Plant response rating, Rape [7, 17]: 0 | Plant response rating, Rape [7, 18]: 0 | Rape plant response rating [7, 19]: 0 | Plant response rating, Rape [7, 28]: 0 | Rape plant response rating [7, 20]: 0 | Rape plant response rating [7, 21]: 0 | Plant response rating, Rape [7, 22]: 0 | Plant response rating, Rape [7, 23]: 4 | Plant response rating, Corn [8, 17]: 0 | Plant response rating, Corn [8, 18]: 3 | Corn plant response rating [8, 19]: 3 | Plant response rating, Corn [8, 28]: 5 | Corn plant response rating [8, 20]: 0 | Corn plant response rating [8, 21]: 4 | Plant response rating, Corn [8, 22]: 4 | Plant response rating, Corn [8, 23]: 5 | Plant response rating, Morningglory [9, 17]: 1 | Plant response rating, Morningglory [9, 18]: 1 | Morningglory plant response rating [9, 19]: 2 | Plant response rating, Morningglory [9, 28]: 10 | Morningglory plant response rating [9, 20]: 0 | Morningglory plant response rating [9, 21]: 0 | Plant response rating, Morningglory [9, 22]: 4 | Plant response rating, Morningglory [9, 23]: 5 | Plant response rating, Rice (0 to 10 scale, 0 is no effect, 10 is complete control) [10, 24]: 0 | Rice plant response rating (0 to 10 scale, 0 is no effect, 10 is complete control) [10, 25]: 0 | Rice plant response rating [10, 26]: 0 | Rice plant response rating [10, 27]: 0 | Plant response rating, Bedstraw ([11]; Rate 62 g/ha, scale 0 to 10, 0 is no effect, 10 is complete control): 0 | Plant response rating, Bedstraw ([11]; Rate 125 g/ha, scale of 0 to 10 where 0 is no effect and 10 is complete control): 0 | Bedstraw plant response rating ([11]; Rate 250 g/ha, scale of 0 to 10, 0 is no effect, 10 is complete control): 0 | Plant response rating, Cocklebur [12, 17]: 0 | Plant response rating, Cocklebur [12, 18]: 0 | Cocklebur plant response rating [12, 19]: 0 | Plant response rating, Cocklebur [12, 28]: 0 | Cocklebur plant response rating [12, 20]: 0 | Cocklebur plant response rating [12, 21]: 0 | Plant response rating, Cocklebur [12, 22]: 0 | Plant response rating, Cocklebur [12, 23]: 0 | Plant response rating, Blackgrass [13, 17]: 0 | Plant response rating, Blackgrass [13, 18]: 4 | Blackgrass plant response rating [13, 19]: 6 | Plant response rating, Blackgrass [13, 28]: 8 | Blackgrass plant response rating [13, 20]: 2 | Blackgrass plant response rating [13, 21]: 4 | Plant response rating, Blackgrass [13, 22]: 7 | Plant response rating, Blackgrass [13, 23]: 10 | Plant response rating, Velvetleaf [14, 17]: 0 | Plant response rating, Velvetleaf [14, 18]: 0 | Velvetleaf plant response rating [14, 19]: 0 | Velvetleaf plant response rating [14, 20]: 0 | Velvetleaf plant response rating [14, 21]: 1 | Plant response rating, Velvetleaf [14, 22]: 6 | Plant response rating, Velvetleaf [14, 23]: 7 | Plant response rating, Wild oats [15, 17]: 0 | Plant response rating, Wild oats [15, 18]: 0 | Wild oats plant response rating [15, 19]: 0 | Wild oats plant response rating [15, 20]: 0 | Wild oats plant response rating [15, 21]: 2 | Plant response rating, Wild oats [15, 22]: 3 | Plant response rating, Wild oats [15, 23]: 3 | Plant response rating, Nutsedge [16, 17]: 0 | Plant response rating, Nutsedge [16, 18]: 0 | Nutsedge plant response rating [16, 19]: 0 | Nutsedge plant response rating [16, 20]: 0 | Nutsedge plant response rating [16, 21]: 0 | Plant response rating, Nutsedge [16, 22]: 0 | Plant response rating, Nutsedge [16, 23]: 0
